Results from patent publication US20160022605A1, “METHODS FOR REDUCING MICROSATELLITE INSTABILITY INDUCED BY CHEMOTHERAPY AND METHODS FOR SCREENING ANTIOXIDANTS THAT SUPPRESS DRUG-INDUCED MICROSATELLITE INSTABILITY WHILE ENHANCING THE CYTOTOXICITY OF CHEMOTHERAPEUTIC AGENTS” (priority 2014, published 2016).
Entries after “also recorded” stand apart in the source; their conditions may differ.

Experiments:
[1] = system: HCT116-(CA)13 cells; test: Frameshift mutation (MSI) analysis by flow cytometry with dual-fluorescent reporter; settings: for mutation frequency: 3-day treatment, 3-day recovery, untreated 0.46±0.04%; for MSI induction (in words): HCT116 derivatives, single drug
Description: (§1) Specified cells were seeded at 1×10^4 or 1×10^5 cells per well in 96-well or 12-well plates respectively. One day after seeding, the cells were treated in triplicates for 3 days with a tested drug in the presence or absence of an antioxidant at indicated concentrations. Subsequently, the drug and/or antioxidant were removed and cells were washed and recovered in fresh growth medium for 3 days before being subjected to analyses. […] On the other hand, PBS was used to make 0.5 M vitamin C stock, saline for making 0.5 M NAC and 0.1 M GSH stocks, and DMSO for making 10 mM curcumin and 10 mM eugenol. Prior to the experiments, PBS was used for diluting the drugs and antioxidants and the final solvent concentration was kept the same for all tested compounds, including untreated controls.
At the end of treatment, adherent cells in 12-well plates were trypsinized and resuspended in PBS containing 1 mM EDTA, and filtered through a 40-μm strainer, and then subjected to flow cytometry (Quanta™ SC-MPL, Beckman Coulter). […] The frequency of frameshift mutations is expressed as the percentage of DsRed^+GFP^+ subpopulation in the GFP^+ cell population.

[2] = system: HCT116 cells; test: Intracellular ROS assay (DCDHF-DA, flow cytometry); format: cell-based, human; settings: 3-day treatment, 3-day recovery; 10 μM 5-FU, 25 nM methotrexate, 50 μM CCNU, 1 μM oxaliplatin
Description: Intracellular ROS levels were measured using an oxidation-sensitive 2′,7′-dichlorodihydrofluorescein diacetate (DCDHF-DA) probe, which can be oxidized to the fluorescent 2′,7′-dichloro-fluorescein (DCF) product. After treatment, HCT116 derivatives in 12-well plates were harvested, washed and resuspended in PBS containing 10 μM DCDHF-DA, followed by 30-min incubation at 37° C. in the dark before being subjected to flow cytometry (Quanta SC-MPL). For a ROS curve of H2O2, 2×10^5 HCT116 derivatives were detached, washed, and incubated with 10 μM DCDHF-DA for 30 min at 37° C., followed by flow cytometric analysis after 30-min exposure to different concentrations of H2O2. After excluding cell debris on the basis of electronic volume and side scatter, the fluorescence intensity of DCF was measured in fluorescence channel 1 of the flow cytometer (λex: 488 nm; λem: 525 nm). The ROS level is expressed as the mean fluorescence intensity (MFI) of DCF from 10,000 cells per sample.

[3] = system: HCT116 cells; test: Fluoresceinated PCR-based assay of endogenous microsatellites (Bethesda panel); format: cell-based, human; settings: 3-day recovery
Description: Genomic DNA was isolated from HCT116 derivatives in 12-well plates with EasyPure Genomic DNA mini kit. The isolated DNA were amplified with fluoresceinated primers specific for the Bethesda panel of microsatellite [Boland et al., 1998] and selected coding microsatellites as described previously [Li et al., 2014]. Fluoresceinated PCR products were analyzed by the ABI 310 genetic analyzer, and electropherograms were generated with GeneScan Collection software (ABI).

[4] = system: HCT116+chr3-(CA)13 cells; test: MSI analysis by high-content microscopy in MMR-proficient cells; format: cell-based, human; settings: 3-day treatment (50 μM CCNU, 5 μM etoposide, 25 nM vinblastine), 3-day recovery; base line 0.35%
Description: as §1
After treatment, HCT116-(CA)13 cells in 96-well glass plates (Corning-Costar®) were fixed with 4% paraformaldehyde and nuclei were stained with 1 μg/ml Hoechst 33258. Fluorescent images of the cells were acquired at 100× magnification by ImageXpress^Micro system (Molecular Devices) and analyzed with MetaXpress® V3.1 software as described previously [Li et al., 2014]. The frequency of frameshift mutations of the (CA)13 microsatellite is expressed as the percentage of the DsRed^+GFP^+Hoechst^+ subpopulation in the GFP^+Hoechst^+ population.

[5] = 3-day treatment, 10 μM 5-FU, 5 μM etoposide, 25 nM vinblastine, 50 μM CCNU, 25 nM methotrexate, 1 μM oxaliplatin
[6] = 1-day treatment, 100 μM CCNU or 100 nM methotrexate

SMILES | mutation frequency ([1]; 2.5 μM) [%] | mutation frequency ([1]; 5 μM) [%] | mutation frequency ([1]; 10 μM) [%] | susceptibility of (CA)13 microsatellite to drug-induced mutations compared to (N)16 random sequence ([1]; 5-FU 2.5-10 μM, HCT116-(CA)13 vs HCT116-(N)16) | MSI induction (in words) [1] | intracellular ROS levels [2] | instability of Bethesda panel microsatellite markers [3, 5] | MSI frequency [4] [%] | alteration of D5S346 ([3]; 100 μM CCNU, 1-day treatment) | instability of Bethesda panel microsatellite markers [3, 6]
O=c1[nH]cc(F)c(=O)[nH]1 [5-FU, 5-fluoro-1H-pyrimidine-2,4-dione] | 5.91±0.49 | 6.37±0.96 | 8.05±2.01 | 1.2-2.8 fold | induced MSI | increased intracellular ROS levels | induced the instability of the BAT25 microsatellite |  |  | 
O=NN(CCCl)C(=O)NC1CCCCC1 [CCNU, 1-(2-chloroethyl)-3-cyclohexyl-1-nitrosourea] |  |  |  |  | induced MSI | generated the highest ROS level | failed to detect alterations | 1.26 | 1-bp insertion in a non-repetitive region of D5S346 | caused the instability of BAT25 and/or BAT26 microsatellites
COc1cc([C@@H]2c3cc4c(cc3[C@@H](O[C@@H]3O[C@@H]5CO[C@@H](C)O[C@H]5[C@H](O)[C@H]3O)[C@H]3COC(=O)[C@H]23)OCO4)cc(OC)c1O [etoposide, (5S,5aR,8aR,9R)-5-[[(2R,4aR,6R,7R,8R,8aS)-7,8-dihydroxy-2-methyl-4,4a,6,7,8,8a-hexahydropyrano[3,2-d][1,3]dioxin-6-yl]oxy]-9-(4-hydroxy-3,5-dimethoxyphenyl)-5a,6,8a,9-tetrahydro-5H-[2]benzofuro[6,5-f][1,3]benzodioxol-8-one] |  |  |  |  |  |  | destabilized the BAT26 microsatellite | 3.74 |  | 
CN(Cc1cnc2nc(N)nc(N)c2n1)c1ccc(C(=O)N[C@@H](CCC(=O)O)C(=O)O)cc1 [methotrexate, (2S)-2-[[4-[(2,4-diaminopteridin-6-yl)methyl-methylamino]benzoyl]amino] pentanedioic acid] |  |  |  |  | induced MSI | but not 25 nM methotrexate increased intracellular ROS levels | failed to detect alterations |  |  | caused the instability of BAT25 and/or BAT26 microsatellites
N[C@@H]1CCCC[C@H]1N.O=C(O)C(=O)O.[Pt] [oxaliplatin, (1R,2R)-cyclohexane-1,2-diamine;oxalic acid;platinum] |  |  |  |  | strong MSI-inducing; also recorded: induced MSI | intermediate ROS-generating abilities | alterations of four out of five microsatellite markers |  |  | 
CC[C@]1(O)C[C@@H]2CN(CCc3c([nH]c4ccccc34)[C@@](C(=O)OC)(c3cc4c(cc3OC)N(C)[C@H]3[C@@](O)(C(=O)OC)[C@H](OC(C)=O)[C@]5(CC)C=CCN6CC[C@]43[C@@H]65)C2)C1 [vinblastine] |  |  |  |  | induced MSI |  | destabilized the BAT26 microsatellite | 2.10 |  | 
